These results are taken from ChEMBL document CHEMBL1817560, “Selectivity of kinase inhibitor fragments” (J Med Chem, 2011).

Experiment [1] addresses T1, Inhibitor of nuclear factor kappa-B kinase subunit beta (Homo sapiens) (UniProt O14920).
T1 sequence (whole entry): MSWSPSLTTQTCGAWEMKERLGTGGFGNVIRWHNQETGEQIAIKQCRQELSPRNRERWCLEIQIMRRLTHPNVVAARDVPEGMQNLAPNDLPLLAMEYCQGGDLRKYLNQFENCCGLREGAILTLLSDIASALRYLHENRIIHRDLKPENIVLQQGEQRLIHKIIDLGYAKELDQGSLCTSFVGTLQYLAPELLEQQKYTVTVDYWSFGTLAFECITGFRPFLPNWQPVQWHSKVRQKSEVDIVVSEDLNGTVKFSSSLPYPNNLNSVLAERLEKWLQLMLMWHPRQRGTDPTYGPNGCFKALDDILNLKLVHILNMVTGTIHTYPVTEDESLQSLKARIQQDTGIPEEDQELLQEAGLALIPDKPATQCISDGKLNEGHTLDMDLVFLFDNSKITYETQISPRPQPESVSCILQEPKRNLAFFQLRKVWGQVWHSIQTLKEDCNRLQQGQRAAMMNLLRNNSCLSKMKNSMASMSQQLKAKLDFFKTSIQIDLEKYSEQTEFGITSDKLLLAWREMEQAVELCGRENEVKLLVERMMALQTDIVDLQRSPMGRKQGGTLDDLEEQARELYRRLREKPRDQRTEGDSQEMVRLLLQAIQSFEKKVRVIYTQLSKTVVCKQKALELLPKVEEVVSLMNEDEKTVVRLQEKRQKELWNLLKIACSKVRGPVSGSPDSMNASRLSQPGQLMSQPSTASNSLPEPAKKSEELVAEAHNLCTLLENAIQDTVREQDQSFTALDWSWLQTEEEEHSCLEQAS
In words: Inhibition of IKK-beta expressed in Escherichia coli or baculovirus-infected insect cells at 667 uM by TR-FRET assay. Background: TR-FRET usually uses a lanthanide donor and a delayed reading to cut background.

In experiment [2] the target is Insulin-like growth factor 1 receptor (Homo sapiens) (UniProt P08069). In words: Inhibition of IGF1R expressed in Escherichia coli or baculovirus-infected insect cells at 400 uM by TR-FRET assay.
The target in experiment [3] is 3-phosphoinositide-dependent protein kinase 1 (Homo sapiens) (UniProt O15530). In words: Inhibition of PDK1 expressed in Escherichia coli or baculovirus-infected insect cells using gamma-[33P]ATP at 400 uM by scintillation proximity assay. In general terms: In a scintillation proximity assay essentially only radioactivity close to the scintillant gives light.
Experiment [4] deals with T2, Serine/threonine-protein kinase Sgk1 (Homo sapiens) (UniProt O00141).
T2 sequence (whole entry): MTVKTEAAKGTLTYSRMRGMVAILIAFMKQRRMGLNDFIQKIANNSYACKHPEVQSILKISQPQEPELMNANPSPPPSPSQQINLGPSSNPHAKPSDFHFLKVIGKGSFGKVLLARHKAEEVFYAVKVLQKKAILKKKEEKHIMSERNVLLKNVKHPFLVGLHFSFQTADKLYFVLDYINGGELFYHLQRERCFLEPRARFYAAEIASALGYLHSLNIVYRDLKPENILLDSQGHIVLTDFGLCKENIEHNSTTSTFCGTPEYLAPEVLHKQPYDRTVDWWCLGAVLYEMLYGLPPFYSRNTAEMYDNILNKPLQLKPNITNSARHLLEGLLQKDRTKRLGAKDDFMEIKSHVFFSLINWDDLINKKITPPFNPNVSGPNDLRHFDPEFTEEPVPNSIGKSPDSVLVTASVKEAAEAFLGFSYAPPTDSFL
In words: Inhibition of SGK1 expressed in Escherichia coli or baculovirus-infected insect cells at 400 uM by IMAP assay.

Experiment [5] addresses Serine/threonine-protein kinase pim-1 (Homo sapiens) (UniProt P11309). In words: Inhibition of PIM1 expressed in Escherichia coli or baculovirus-infected insect cells at 400 uM by IMAP assay.
The target in experiment [6] is Rho-associated protein kinase 1 (Homo sapiens) (UniProt Q13464). In words: Inhibition of ROCK1 expressed in Escherichia coli or baculovirus-infected insect cells at 400 uM by IMAP assay.
For experiment [7], the target named is Focal adhesion kinase 1 (Homo sapiens) (UniProt Q05397). In words: Inhibition of FAK expressed in Escherichia coli or baculovirus-infected insect cells at 400 uM by TR-FRET assay.
Experiment [8] has as its target T3, Tyrosine-protein kinase ITK/TSK (Homo sapiens) (UniProt Q08881).
T3 sequence (whole entry): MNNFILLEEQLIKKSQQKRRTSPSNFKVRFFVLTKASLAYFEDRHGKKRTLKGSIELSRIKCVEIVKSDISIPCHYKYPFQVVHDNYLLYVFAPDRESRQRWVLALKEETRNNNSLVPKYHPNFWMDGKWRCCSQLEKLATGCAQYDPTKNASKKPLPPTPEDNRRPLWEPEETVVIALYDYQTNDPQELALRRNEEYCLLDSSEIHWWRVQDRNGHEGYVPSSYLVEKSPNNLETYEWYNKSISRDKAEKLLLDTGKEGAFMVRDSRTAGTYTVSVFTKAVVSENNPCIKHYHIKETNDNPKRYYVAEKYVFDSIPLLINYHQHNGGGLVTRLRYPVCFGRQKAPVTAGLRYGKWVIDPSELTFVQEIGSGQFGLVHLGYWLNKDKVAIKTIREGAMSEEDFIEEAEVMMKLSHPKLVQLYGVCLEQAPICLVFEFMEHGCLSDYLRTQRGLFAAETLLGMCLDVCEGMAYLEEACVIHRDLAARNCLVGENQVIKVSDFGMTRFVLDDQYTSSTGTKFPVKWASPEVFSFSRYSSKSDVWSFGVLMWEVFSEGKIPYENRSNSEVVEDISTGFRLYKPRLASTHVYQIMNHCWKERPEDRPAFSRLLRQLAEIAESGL
In words: Inhibition of ITK expressed in Escherichia coli or baculovirus-infected insect cells at 667 uM by TR-FRET assay.

For experiment [9], the target named is RAC-alpha serine/threonine-protein kinase (Homo sapiens, UniProt P31749). In words: Inhibition of AKT1 expressed in Escherichia coli or baculovirus-infected insect cells using gamma-[33P]ATP at 400 uM by scintillation proximity assay.
In experiment [10] the target is RAC-beta serine/threonine-protein kinase (Homo sapiens) (UniProt P31751). In words: Inhibition of AKT2 expressed in Escherichia coli or baculovirus-infected insect cells using gamma-[33P]ATP at 400 uM by scintillation proximity assay.
Sequence of RAC-beta serine/threonine-protein kinase (Homo sapiens) (P31751 whole entry): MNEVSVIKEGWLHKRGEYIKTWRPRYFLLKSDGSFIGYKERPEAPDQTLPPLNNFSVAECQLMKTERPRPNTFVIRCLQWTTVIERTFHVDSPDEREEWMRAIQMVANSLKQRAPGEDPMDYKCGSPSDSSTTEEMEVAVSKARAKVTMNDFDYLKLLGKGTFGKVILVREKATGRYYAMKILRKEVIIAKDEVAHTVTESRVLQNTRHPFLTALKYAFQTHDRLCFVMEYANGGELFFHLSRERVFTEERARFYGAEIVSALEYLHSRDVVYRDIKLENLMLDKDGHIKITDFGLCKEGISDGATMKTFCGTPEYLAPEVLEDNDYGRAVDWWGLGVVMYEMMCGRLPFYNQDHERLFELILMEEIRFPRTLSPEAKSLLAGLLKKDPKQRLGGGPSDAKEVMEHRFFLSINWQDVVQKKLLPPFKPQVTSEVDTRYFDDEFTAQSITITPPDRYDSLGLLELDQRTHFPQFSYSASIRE

Sequence of Rho-associated protein kinase 1 (Homo sapiens) (Q13464 2-1354 limits assumed): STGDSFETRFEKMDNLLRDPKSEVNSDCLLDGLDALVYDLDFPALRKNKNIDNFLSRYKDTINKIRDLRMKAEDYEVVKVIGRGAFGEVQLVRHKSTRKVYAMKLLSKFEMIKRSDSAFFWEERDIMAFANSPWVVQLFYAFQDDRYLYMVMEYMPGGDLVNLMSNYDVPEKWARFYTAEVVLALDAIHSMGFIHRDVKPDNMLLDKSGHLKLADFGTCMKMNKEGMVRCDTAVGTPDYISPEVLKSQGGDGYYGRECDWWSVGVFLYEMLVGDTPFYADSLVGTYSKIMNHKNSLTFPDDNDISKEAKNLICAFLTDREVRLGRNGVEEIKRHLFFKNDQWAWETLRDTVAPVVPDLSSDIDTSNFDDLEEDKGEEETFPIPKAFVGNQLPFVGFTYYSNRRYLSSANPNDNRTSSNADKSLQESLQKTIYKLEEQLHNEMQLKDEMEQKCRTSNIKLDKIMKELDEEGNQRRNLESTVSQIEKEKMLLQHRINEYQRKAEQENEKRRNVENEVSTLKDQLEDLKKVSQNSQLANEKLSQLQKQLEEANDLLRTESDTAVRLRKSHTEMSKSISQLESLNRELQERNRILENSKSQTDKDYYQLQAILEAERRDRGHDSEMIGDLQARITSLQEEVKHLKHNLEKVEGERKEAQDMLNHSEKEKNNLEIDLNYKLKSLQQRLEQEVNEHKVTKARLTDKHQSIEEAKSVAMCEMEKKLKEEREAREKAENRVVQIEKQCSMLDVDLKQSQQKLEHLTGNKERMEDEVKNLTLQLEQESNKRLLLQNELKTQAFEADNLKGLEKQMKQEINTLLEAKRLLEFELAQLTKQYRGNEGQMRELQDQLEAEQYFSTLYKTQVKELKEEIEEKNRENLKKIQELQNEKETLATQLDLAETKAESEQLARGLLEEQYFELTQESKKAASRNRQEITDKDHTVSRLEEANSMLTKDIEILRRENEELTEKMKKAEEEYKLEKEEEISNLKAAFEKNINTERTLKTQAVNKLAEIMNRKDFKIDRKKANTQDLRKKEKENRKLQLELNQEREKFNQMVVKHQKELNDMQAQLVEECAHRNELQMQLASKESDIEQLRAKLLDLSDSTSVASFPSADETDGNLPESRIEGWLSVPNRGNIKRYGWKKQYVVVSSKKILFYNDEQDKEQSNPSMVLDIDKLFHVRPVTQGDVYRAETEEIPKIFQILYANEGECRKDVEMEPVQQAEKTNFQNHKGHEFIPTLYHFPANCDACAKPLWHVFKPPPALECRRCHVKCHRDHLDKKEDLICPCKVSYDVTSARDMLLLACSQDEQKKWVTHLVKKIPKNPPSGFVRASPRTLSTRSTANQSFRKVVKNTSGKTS
Sequence of Serine/threonine-protein kinase pim-1 (Homo sapiens) (P11309 whole entry, looked up): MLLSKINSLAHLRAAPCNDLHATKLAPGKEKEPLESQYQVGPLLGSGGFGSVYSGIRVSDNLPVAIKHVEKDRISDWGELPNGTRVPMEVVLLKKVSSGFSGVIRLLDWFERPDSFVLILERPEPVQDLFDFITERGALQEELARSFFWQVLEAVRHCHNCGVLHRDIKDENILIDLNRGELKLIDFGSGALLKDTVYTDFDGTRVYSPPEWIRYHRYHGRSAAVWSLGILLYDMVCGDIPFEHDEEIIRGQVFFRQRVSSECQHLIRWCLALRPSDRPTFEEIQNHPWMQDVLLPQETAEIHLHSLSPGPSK
Sequence of 3-phosphoinositide-dependent protein kinase 1 (Homo sapiens) (O15530 whole entry, looked up): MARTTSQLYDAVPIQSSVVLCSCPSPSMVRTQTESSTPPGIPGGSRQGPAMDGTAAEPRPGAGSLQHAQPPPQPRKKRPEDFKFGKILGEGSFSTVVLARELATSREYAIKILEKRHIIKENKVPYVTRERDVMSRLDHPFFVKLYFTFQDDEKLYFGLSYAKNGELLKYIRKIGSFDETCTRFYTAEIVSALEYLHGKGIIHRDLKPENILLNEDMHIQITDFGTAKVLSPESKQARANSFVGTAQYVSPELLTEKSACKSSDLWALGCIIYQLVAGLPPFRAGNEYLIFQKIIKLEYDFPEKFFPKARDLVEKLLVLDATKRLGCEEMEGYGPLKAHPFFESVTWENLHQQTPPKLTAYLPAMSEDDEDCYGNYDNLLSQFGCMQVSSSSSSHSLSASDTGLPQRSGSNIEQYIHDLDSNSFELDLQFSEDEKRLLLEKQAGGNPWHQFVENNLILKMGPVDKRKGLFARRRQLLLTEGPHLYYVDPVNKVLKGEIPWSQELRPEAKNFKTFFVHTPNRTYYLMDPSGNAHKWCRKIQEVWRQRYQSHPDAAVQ
Sequence of RAC-alpha serine/threonine-protein kinase (P31749 whole entry): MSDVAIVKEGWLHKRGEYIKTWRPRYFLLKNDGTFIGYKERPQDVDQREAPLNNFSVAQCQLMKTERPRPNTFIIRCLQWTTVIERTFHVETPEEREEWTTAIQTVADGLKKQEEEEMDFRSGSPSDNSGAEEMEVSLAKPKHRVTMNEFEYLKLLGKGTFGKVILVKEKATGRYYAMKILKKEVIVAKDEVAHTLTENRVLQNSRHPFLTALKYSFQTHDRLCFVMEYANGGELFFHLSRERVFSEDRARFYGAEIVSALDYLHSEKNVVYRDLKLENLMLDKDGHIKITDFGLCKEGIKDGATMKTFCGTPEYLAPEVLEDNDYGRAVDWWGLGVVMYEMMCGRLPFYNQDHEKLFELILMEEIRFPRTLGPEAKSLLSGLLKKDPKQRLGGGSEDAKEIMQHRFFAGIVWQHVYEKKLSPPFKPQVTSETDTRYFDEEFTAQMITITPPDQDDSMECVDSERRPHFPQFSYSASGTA
Sequence of Focal adhesion kinase 1 (Homo sapiens) (Q05397 2-1052 limits assumed): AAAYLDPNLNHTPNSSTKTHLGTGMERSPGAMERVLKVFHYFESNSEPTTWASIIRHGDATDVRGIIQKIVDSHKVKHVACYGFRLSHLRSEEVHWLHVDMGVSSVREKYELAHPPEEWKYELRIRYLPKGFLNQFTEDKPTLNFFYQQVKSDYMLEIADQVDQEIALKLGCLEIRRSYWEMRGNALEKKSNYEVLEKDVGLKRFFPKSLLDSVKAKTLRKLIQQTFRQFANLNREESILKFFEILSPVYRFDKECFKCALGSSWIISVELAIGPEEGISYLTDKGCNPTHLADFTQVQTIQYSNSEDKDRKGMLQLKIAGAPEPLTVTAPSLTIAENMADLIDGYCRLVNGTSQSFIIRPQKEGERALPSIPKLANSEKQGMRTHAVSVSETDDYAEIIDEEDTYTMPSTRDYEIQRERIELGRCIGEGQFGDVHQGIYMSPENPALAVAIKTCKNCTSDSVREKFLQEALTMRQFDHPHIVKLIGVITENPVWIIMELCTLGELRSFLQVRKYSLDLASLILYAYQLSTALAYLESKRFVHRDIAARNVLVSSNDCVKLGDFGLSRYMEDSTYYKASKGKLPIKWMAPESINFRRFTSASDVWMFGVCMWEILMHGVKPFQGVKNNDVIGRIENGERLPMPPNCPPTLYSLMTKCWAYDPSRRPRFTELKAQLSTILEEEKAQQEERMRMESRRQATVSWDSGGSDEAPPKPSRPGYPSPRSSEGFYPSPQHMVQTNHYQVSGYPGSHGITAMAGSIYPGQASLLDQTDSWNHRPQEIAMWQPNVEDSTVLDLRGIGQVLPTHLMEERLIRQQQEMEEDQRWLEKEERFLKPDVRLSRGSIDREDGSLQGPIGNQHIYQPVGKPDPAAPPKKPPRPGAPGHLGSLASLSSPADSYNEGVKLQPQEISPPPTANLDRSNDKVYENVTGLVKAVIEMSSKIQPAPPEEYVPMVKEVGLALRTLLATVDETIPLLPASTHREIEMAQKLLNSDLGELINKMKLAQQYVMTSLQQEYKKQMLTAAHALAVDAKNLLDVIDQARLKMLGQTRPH

As for `c1ccc(Nc2ccccc2)cc1`, the inhibition is 0% in experiment [1]; 0% in experiment [2]; 9% in experiment [3]; 3% in experiment [4]; 17% in experiment [5]; 0% in [6]. Besides, the inhibition in experiment [7] stood at 0%; in experiment [8] it was 41%; in experiment [9] it was 17%; in experiment [10] it was 9%.
Take `Nc1ccc2ncc(-c3ccccc3)n2n1`: the inhibition in experiment [1] stood at 57%; in experiment [2], 92%; in experiment [3] it was 66%; in experiment [4] it was 90%; in [5], 89%; in [6], 93%. The inhibition came to 33% in [7], 94% in [8], 67% in experiment [9] and 39% in experiment [10].
`c1ccc2[nH]ncc2c1` [INDAZOLE]: the inhibition in [1] was found to be 15%; in experiment [2], 24%; in experiment [3] it was 25%; in experiment [4], 75%; in experiment [5] it was 22%; in experiment [6] it was 80%. For the same compound, the inhibition in experiment [7] stood at 3%; in experiment [8] it was 26%; in experiment [9], 24%; in [10], 12%.

What is called inhibition is the relative decrease from the control value, in per cent. Read a high inhibition as a strong effect.
